Series [1] concerns vaccinia virus. Description: microbe, parasite or virus in culture. Type of series: cell-based, Vaccinia virus (WR strain).
The nature of series [2]: Cytotoxicity (CC50). Particulars: African green monkey, BSC-1 cells.
Where [3] appears, read: Orthopoxvirus vaccinia, BSC-1, read-out: IC50 (antiviral).

Where two headings read alike, the source gives them in different places.

The IC50 is the concentration needed to halve the response being measured. In the case of `Cc1cccc2c(Sc3ccc(Cl)cc3)c(C(=O)O)[nH]c12` [Compound 1c, 3-((4-Chlorophenyl)thio)-7-methyl-1H-indole-2-carboxylic acid], the IC50 in series [1] (setting [3]) was 46 to 86 µM; in series [1] (read-out: IC50 (antiviral)) it was 74 µM.

One may read the CC50 as the concentration that lowers cell viability or growth by half. Read a low CC50 as greater toxicity to the cells. For `Cc1ccc(C)c2c(Sc3ccc(Cl)cc3)c(C(=O)O)[nH]c12` [Compound 1j, 3-((4-chlorophenyl)thio)-4,7-dimethyl-1H-indole-2-carboxylic acid], the IC50 in series [1] (setting [3]) was found to be 50 µM. The CC50 in series [2] is 109 µM.

As for `COC(=O)c1[nH]c2cccc(C)c2c1Sc1ccc(Cl)cc1` [Compound 9, Methyl 3-((4-chlorophenyl)thio)-4-methyl-1H-indole-2-carboxylate], the IC50 in series [1] (setting [3]) turned out to be 21 µM.

Consider `CNC(=O)c1[nH]c2cc(C)ccc2c1Sc1cc(Cl)cc(Cl)c1` [Compound 28, 3-((3,5-Dichlorophenyl)thio)-N,6-dimethyl-1H-indole-2-carboxamide], for which the “IC50 (antiviral)” value in series [1] was “loss of activity”.

On to `Cc1ccc2c(Sc3ccc(C(F)(F)F)cc3[N+](=O)[O-])c(C(=O)O)[nH]c2c1` [Compound 31, 6-Methyl-3-((2-nitro-4-(trifluoromethyl)phenyl)thio)-1H-indole-2-carboxylic acid], for which, in series [1], the “IC50 (antiviral)” value is “loss of activity”.

In the case of `Cc1cccc2c(Sc3ccc(Cl)c(Cl)c3)c(C(=O)O)[nH]c12` [Compound 22, 3-((3,4-Dichlorophenyl)thio)-7-methyl-1H-indole-2-carboxylic acid], the “fold activity improvement over the parent 1” value (“fold activity improvement” for short) in series [1] is reported as 2-11 fold. For the same compound, the 50% cytotoxic concentration (CC50) in series [2] amounted to 150 µM.

Consider `O=C(O)c1[nH]c2ccccc2c1Sc1cc(Cl)cc(Cl)c1` [Compound 26, 3-((3,5-Dichlorophenyl)thio)-1H-indole-2-carboxylic acid], for which the “fold decrease in activity compared to 24” value in series [1] was around 6 fold. The half-inhibitory concentration (IC50) in series [1] (setting [3]) worked out at 43 µM. Also, the cytotoxic concentration (CC50) in series [2] was found to be 133 µM.

Turning to `O=C(O)c1[nH]c2cc(Cl)ccc2c1Sc1ccc(Cl)cc1` [Compound 1e, 6-Chloro-3-((4-chlorophenyl)thio)-1H-indole-2-carboxylic acid], the IC50 in series [1] (setting [3]) was 40 to 51 µM; in series [1] (read-out: IC50 (antiviral)), 47 µM. The compound further showed a CC50 in series [2] of 138 µM.

On to `COc1ccc(Sc2c(C(=O)O)[nH]c3cc(C)ccc23)cc1` [Compound 18e, 3-((4-Methoxyphenyl)thio)-6-methyl-1H-indole-2-carboxylic acid], for which the “IC50 (antiviral)” value in series [1] is reported as “failed to show antiviral activities”.

Turning to `COC(=O)c1[nH]c2cc(C)ccc2c1Sc1ccc(Cl)cc1` [Compound 6, Methyl 3-((4-chlorophenyl)thio)-6-methyl-1H-indole-2-carboxylate], the IC50 in series [1] (setting [3]) was determined as 19 µM. The compound further registered a cytotoxic concentration (CC50) in series [2] of 61 µM.

In the case of `Cc1ccc2c(Sc3ccc(C(=O)O)cc3)c(C(=O)O)[nH]c2c1` [Compound 18f, 3-((4-Carboxyphenyl)thio)-6-methyl-1H-indole-2-carboxylic acid], the “IC50 (antiviral)” value in series [1] was “loss of activity”.

Regarding `Cc1ccc2[nH]c(C(=O)O)c(Sc3ccc(Cl)cc3)c2c1` [Compound 1b, 3-((4-Chlorophenyl)thio)-5-methyl-1H-indole-2-carboxylic acid], the results for the IC50 in series [1] (setting [3]) and in series [1] (read-out: IC50 (antiviral)) were 46 to 86 µM and 46 µM, respectively. The compound also yielded a 50% cytotoxic concentration (CC50) in series [2] of 136 µM.

On to `Cc1ccc2c(Sc3cccc(F)c3)c(C(=O)O)[nH]c2c1` [Compound 18b, 3-((3-Fluorophenyl)thio)-6-methyl-1H-indole-2-carboxylic acid], for which the half-maximal inhibitory concentration (IC50) in series [1] (setting [3]) worked out at 56 µM; in series [1] (read-out: IC50 (antiviral)), 69 µM.

As for `Cc1cccc2c(Sc3cc(Cl)c(Cl)cc3Cl)c(C(=O)O)[nH]c12` [Compound 30a, 7-Methyl-3-((2,4,5-trichlorophenyl)thio)-1H-indole-2-carboxylic acid], the half-inhibitory concentration (IC50) in series [1] (setting [3]) came to 21 µM. In series [2], this compound returned a half-maximal cytotoxic concentration (CC50) of 93 µM.

For the compound `Cc1ccc(Sc2c(C(=O)O)[nH]c3cccc(C)c23)cc1` [Compound 19a, 4-Methyl-3-(p-tolylthio)-1H-indole-2-carboxylic acid], in series [1], the “IC50 (antiviral)” value is on record as “failed to show antiviral activities”.

Take `Cc1cccc2[nH]c(C(=O)O)c(Sc3ccc(Cl)cc3)c12` [Compound 1a, 3-((4-Chlorophenyl)thio)-4-methyl-1H-indole-2-carboxylic acid]: the half-maximal inhibitory concentration (IC50) was 46 to 86 µM in series [1] (setting [3]) and 86 µM in series [1] (read-out: IC50 (antiviral)).

`COC(=O)c1ccc(Sc2c(C(=O)O)[nH]c3cccc(C)c23)cc1` [Compound 19b, 3-((4-(Methoxycarbonyl)phenyl)thio)-4-methyl-1H-indole-2-carboxylic acid]: the “IC50 (antiviral)” value in series [1] is “failed to show antiviral activities”.

Regarding `Cc1cccc2[nH]c(C(=O)O)c(Sc3cc(Cl)c(Cl)cc3Cl)c12` [Compound 30b, 4-Methyl-3-((2,4,5-trichlorophenyl)thio)-1H-indole-2-carboxylic acid], in series [1] (setting [3]), the IC50 is 18 µM. Further, the half-maximal cytotoxic concentration (CC50) in series [2] came to 65 µM.

Turning to `CCn1c(C(=O)OC)c(Sc2ccc(Cl)cc2)c2cc(C)ccc21` [Compound 5, Methyl 3-((4-chlorophenyl)thio)-1-ethyl-5-methyl-1H-indole-2-carboxylate], in series [1], the “fold improvement in activity of 5 over 3” value turned out to be 2 fold; the “fold improvement in activity over the corresponding R1 methyl analogs 2 and 4” value was 4 fold. For the same compound, in series [1] (setting [3]), the IC50 is 39 µM.

As for `O=C(O)c1[nH]c2cc(Br)ccc2c1Sc1ccc(Cl)cc1` [Compound 1f, 6-Bromo-3-((4-chlorophenyl)thio)-1H-indole-2-carboxylic acid], the half-maximal inhibitory concentration (IC50) is 40 to 51 µM in series [1] (setting [3]) and 51 µM in series [1] (read-out: IC50 (antiviral)). For the same compound, it took 90 µM to reach half-maximal cytotoxicity in series [2] (CC50).

For `Cc1ccc2c(Sc3ccc(Cl)cc3Cl)c(C(=O)O)[nH]c2c1` [Compound 20, 3-((2,4-Dichlorophenyl)thio)-6-methyl-1H-indole-2-carboxylic acid], in series [1], the “fold activity improvement” value is listed as 2-11 fold. For the same compound, the CC50 in series [2] was found to be 129 µM.

For `COc1ccc(Sc2c(C(=O)O)[nH]c3cccc(C)c23)cc1` [Compound 19, 3-((4-Methoxyphenyl)thio)-4-methyl-1H-indole-2-carboxylic acid], the “IC50 (antiviral)” value in series [1] is reported as “failed to show antiviral activities”.

In the case of `Cc1ccc(Sc2c(C(=O)O)[nH]c3cc(C)ccc23)cc1` [Compound 18d, 6-Methyl-3-(p-tolylthio)-1H-indole-2-carboxylic acid], the “IC50 (antiviral)” value in series [1] is “failed to show antiviral activities”.

With `Cc1ccc2c(Sc3ccc(Br)cc3)c(C(=O)O)[nH]c2c1` [Compound 18c, 3-((4-Bromophenyl)thio)-6-methyl-1H-indole-2-carboxylic acid], the “IC50 (antiviral)” value in series [1] is listed as “loss of activity”. Besides, the CC50 in series [2] was 133 µM.

Consider `Cc1cccc2[nH]c(C(=O)O)c(Sc3ccc([N+](=O)[O-])cc3)c12` [Compound 19c, 4-Methyl-3-((4-nitrophenyl)thio)-1H-indole-2-carboxylic acid], for which the “IC50 (antiviral)” value in series [1] is reported as “loss of activity”.

Regarding `Cc1ccc2c(Sc3ccc(Cl)c(Cl)c3)c(C(=O)O)[nH]c2c1` [Compound 21, 3-((3,4-Dichlorophenyl)thio)-6-methyl-1H-indole-2-carboxylic acid], the “fold activity improvement” value in series [1] is on record as 2-11 fold. In series [2], this compound yielded a CC50 of 76 µM.

As to `CCc1ccc2c(Sc3ccc(Cl)c(Cl)c3)c(C(=O)O)[nH]c2c1` [Compound 23, 3-((3,4-Dichlorophenyl)thio)-6-ethyl-1H-indole-2-carboxylic acid], the IC50 in series [1] (setting [3]) was found to be 42 µM.

For the compound `Cc1ccc2c(Sc3ccc(Cl)cc3)c(C(=O)O)[nH]c2c1` [Compound 1, 3-((4-Chlorophenyl)thio)-6-methyl-1H-indole-2-carboxylic acid], the 50% inhibitory concentration (IC50) in series [1] (Orthopoxvirus vaccinia) and in series [1] (setting [3]) was 82 µM each time. This compound also gave a CC50 in series [2] of 192 µM.

With `COC(=O)c1c(Sc2ccc(Cl)cc2)c2cc(C)ccc2n1C` [Compound 4, Methyl 3-((4-chlorophenyl)thio)-1,5-dimethyl-1H-indole-2-carboxylate], in series [1] (setting [3]), the concentration for half-maximal inhibition (IC50) was found to be 163 µM.

Turning to `CCc1ccc2c(Sc3ccc(Cl)cc3)c(C(=O)O)[nH]c2c1` [Compound 1h, 3-((4-Chlorophenyl)thio)-6-ethyl-1H-indole-2-carboxylic acid], the half-maximal inhibitory concentration (IC50) in series [1] (setting [3]) was found to be 36 µM.

Regarding `CCn1c(C(=O)O)c(Sc2ccc(Cl)cc2)c2cc(C)ccc21` [Compound 3, 3-((4-Chlorophenyl)thio)-1-ethyl-5-methyl-1H-indole-2-carboxylic acid], the “fold improvement in activity over the corresponding R1 methyl analogs 2 and 4” value in series [1] was found to be 1.5 fold. Further, in series [1] (setting [3]), the half-inhibitory concentration (IC50) is 86 µM.

As for `O=C(O)c1[nH]c2ccccc2c1Sc1ccc(Cl)cc1` [Compound 1d, 3-(4-Chlorophenylthio)-1H-indole-2-carboxylic acid], the “IC50 (antiviral)” value in series [1] is given as “loss of activity”.

Turning to `Cc1ccc2c(Sc3cccc(Cl)c3)c(C(=O)O)[nH]c2c1` [Compound 18a, 3-((3-Chlorophenyl)thio)-6-methyl-1H-indole-2-carboxylic acid], in series [1] (setting [3]), the 50% inhibitory concentration (IC50) is 51 µM.

On to `COC(=O)c1[nH]c2c(C)cccc2c1Sc1ccc(Cl)cc1` [Compound 8, Methyl 3-((4-chlorophenyl)thio)-7-methyl-1H-indole-2-carboxylate], for which the IC50 in series [1] (setting [3]) was found to be 23 µM. Further, in series [2], the CC50 worked out at 32 µM.

With “3-((3,5-Dichlorophenyl)thio)-6-methyl-1H-indole-2-carboxylate [Compound 27]”, the “IC50 (antiviral)” value in series [1] is “loss of activity”.

On to `Cc1ccc2c(Sc3ccccc3)c(C(=O)O)[nH]c2c1` [Compound 18, 6-Methyl-3-(phenylthio)-1H-indole-2-carboxylic acid], for which, in series [1], the “IC50 (antiviral)” value is reported as “abolished its antiviral activity”.

As for `COc1cccc2[nH]c(C(=O)O)c(Sc3ccc(Cl)cc3)c12` [Compound 1i, 3-((4-Chlorophenyl)thio)-4-methoxy-1H-indole-2-carboxylic acid], the “IC50 (antiviral)” value in series [1] is reported as “loss of activity”.

As to `Cc1ccc2c(c1)c(Sc1ccc(Cl)cc1)c(C(=O)O)n2C` [Compound 2, 3-((4-Chlorophenyl)thio)-1,5-dimethyl-1H-indole-2-carboxylic acid], the IC50 in series [1] (setting [3]) was 135 µM.

`O=C(O)c1[nH]c2cc(F)ccc2c1Sc1ccc(Cl)cc1` [Compound 1g, 6-Fluoro-3-((4-chlorophenyl)thio)-1H-indole-2-carboxylic acid]: the half-maximal inhibitory concentration (IC50) in series [1] (setting [3]) was 40 to 51 µM; in series [1] (read-out: IC50 (antiviral)) it was 40 µM.

(Values after patent US9233921B2, “Potent poxvirus inhibitor” (priority 2013, dated 2016).)
